{"source": "patent US10597315B2", "about": "“Method of disinfection of drinking water using ozone and silver cations” (KAUNO TECHNOLOGIJOS UNIVERSITETAS, priority 2015, dated 2020)", "origin": "cited, not measured here", "key": {"[1]": {"conditions": "World Health Organization"}}, "data": [{"smiles": "[Ag+]", "note": "[silver]", "values": [{"measurement": "Ingested silver absorbed in the intestine", "result": 10, "unit": "%"}, {"measurement": "Ingested silver excreted from the body via the faeces", "result": 90, "unit": "%"}, {"measurement": "Silver in drinking water tolerable without any risk to health", "setting": "[1]", "result": "up to 0.1 mg/kg"}]}]}
